Experimental data: patent US20250270180A1, “MEK INHIBITORS AND THERAPEUTIC USES THEREOF” (Immuneering Corporation, priority 2020, published 2025)
Where two headings read alike, the source gives them in different places.

Columns and labels:
[1] = Plasma stability, CD-1 mouse; assay type: in vitro ADME; conditions: 2 μM
CYP450 2C9 = CYP450 2C9 (Homo sapiens, UniProt P11712); assay: CYP450 panel, 2C9; conditions: 10 μM; substrate Diclofenac
[2] = Pharmacokinetics, single dose, 2-hour tissue levels in Colon26 tumor bearing mice; assay type: in vivo; conditions: single dose 100 mg/kg p.o., 2-hour post dose; for concentration at 2 h: female, athymic BALB/c nude or BALB/c, mouse, po
Protocol: Female mice (either athymic BALC/c nude, or BALB/c mice) were inoculated with a single subcutaneous injection of 0.2 ml of mouse Colon-26 cell suspension (1×10^5 cells per animal) in the inguinal region. Colon26 (C26) tumor bearing mice received a single dose (3 mice/treatment) of vehicle (10% DMSO/90% [20% SBE-β-CD in saline], pH 5) containing compounds at 100 mg/kg by gavage (p.o.) and 2-hour post dose humanely euthanized.
Blood was obtained through cardiac puncture into K+EDTA tubes, mixed by inversion and centrifuged to obtain the plasma. Tissues were excised, cleaned of surrounding tissues. All samples immediately snap frozen in liquid N2 prior to LC-MS/MS analysis (using Waters HSS T3 2.1×50 mm (1.8 um) LC column, and an API-6500 Electrospray MS unit).

CYP450 2C8 = molecular target: T1, CYP450 2C8 (Homo sapiens, UniProt P10632); assay: CYP450 panel, 2C8; conditions: 10 μM; substrate amodiaquine
T1 sequence (P10632 1-490): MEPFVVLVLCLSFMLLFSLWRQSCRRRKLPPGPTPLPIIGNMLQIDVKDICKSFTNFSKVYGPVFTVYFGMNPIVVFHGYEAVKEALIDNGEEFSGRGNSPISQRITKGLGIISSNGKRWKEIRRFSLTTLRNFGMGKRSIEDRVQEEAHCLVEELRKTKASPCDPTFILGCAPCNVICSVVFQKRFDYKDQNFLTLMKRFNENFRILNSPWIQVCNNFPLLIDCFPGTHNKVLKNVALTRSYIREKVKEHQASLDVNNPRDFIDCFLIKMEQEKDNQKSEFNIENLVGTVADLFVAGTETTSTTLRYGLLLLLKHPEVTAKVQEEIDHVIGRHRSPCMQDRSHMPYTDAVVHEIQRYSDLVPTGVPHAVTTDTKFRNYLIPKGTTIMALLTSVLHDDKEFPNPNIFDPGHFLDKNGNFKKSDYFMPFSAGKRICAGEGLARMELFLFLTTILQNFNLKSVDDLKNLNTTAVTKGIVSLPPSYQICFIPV

CYP450 3A4 = CYP450 3A4 (Homo sapiens, UniProt P08684); assay: CYP450 panel, 3A4; conditions: 10 μM; for 3A4*: substrate midazolam; for 3A4^: substrate testosterone
Chain of CYP450 3A4 (P08684 whole entry): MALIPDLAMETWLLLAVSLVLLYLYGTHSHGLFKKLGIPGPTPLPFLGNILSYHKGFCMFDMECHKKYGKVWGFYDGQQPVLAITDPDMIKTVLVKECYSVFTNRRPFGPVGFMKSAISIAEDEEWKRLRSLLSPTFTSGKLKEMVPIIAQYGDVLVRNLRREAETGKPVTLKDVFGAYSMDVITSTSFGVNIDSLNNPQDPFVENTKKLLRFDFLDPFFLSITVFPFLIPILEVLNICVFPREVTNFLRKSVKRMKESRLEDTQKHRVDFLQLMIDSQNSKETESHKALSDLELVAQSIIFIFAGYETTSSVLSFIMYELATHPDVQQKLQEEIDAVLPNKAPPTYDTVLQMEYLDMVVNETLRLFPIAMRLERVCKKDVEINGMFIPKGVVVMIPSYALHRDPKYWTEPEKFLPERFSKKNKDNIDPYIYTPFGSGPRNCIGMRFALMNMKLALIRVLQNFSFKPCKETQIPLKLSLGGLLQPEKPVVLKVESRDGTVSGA

CYP450 2D6 = CYP450 2D6 (Homo sapiens, UniProt P10635); assay: CYP450 panel, 2D6; conditions: 10 μM; substrate dextromethophan
Chain of CYP450 2D6 (P10635 whole entry): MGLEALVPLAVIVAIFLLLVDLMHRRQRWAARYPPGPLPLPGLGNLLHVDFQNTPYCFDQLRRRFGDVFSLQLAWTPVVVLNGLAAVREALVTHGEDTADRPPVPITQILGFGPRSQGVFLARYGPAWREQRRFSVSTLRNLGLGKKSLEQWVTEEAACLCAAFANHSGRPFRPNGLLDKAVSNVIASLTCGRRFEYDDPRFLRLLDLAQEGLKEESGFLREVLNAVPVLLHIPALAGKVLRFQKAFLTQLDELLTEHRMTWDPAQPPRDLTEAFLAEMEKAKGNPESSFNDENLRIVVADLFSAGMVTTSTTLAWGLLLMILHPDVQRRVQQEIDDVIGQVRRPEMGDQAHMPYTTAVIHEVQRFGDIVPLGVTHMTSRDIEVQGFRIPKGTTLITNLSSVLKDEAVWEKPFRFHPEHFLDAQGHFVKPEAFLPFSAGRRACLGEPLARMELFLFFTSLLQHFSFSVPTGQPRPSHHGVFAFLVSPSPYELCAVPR

[3] = Microsome stability, beagle dog; assay type: in vitro ADME; conditions: microsomes, 2 μM
CYP450 2B6 = molecular target: T2, CYP450 2B6 (Homo sapiens, UniProt P20813); assay: CYP450 panel, 2B6; conditions: 10 μM; substrate bupropion
T2 sequence (P20813 1-491): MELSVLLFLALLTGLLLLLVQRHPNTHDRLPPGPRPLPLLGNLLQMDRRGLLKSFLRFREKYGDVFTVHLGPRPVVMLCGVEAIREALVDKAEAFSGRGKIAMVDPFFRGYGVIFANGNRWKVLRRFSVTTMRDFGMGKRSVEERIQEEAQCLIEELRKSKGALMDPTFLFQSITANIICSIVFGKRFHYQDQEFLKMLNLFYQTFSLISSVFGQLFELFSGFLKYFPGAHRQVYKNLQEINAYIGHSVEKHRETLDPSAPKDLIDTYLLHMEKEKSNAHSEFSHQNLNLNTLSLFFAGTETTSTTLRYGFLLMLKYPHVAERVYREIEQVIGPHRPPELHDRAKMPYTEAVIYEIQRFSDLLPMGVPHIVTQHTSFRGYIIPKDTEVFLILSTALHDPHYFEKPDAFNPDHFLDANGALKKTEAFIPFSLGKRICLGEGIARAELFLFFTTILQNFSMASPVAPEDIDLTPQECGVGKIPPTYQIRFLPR

CYP450 1A2 = molecular target: T3, CYP450 1A2 (Homo sapiens, UniProt P05177); assay: CYP450 panel, 1A2; assay type: in vitro ADME; conditions: 10 μM; substrate phenacetin
T3 sequence (P05177 1-516): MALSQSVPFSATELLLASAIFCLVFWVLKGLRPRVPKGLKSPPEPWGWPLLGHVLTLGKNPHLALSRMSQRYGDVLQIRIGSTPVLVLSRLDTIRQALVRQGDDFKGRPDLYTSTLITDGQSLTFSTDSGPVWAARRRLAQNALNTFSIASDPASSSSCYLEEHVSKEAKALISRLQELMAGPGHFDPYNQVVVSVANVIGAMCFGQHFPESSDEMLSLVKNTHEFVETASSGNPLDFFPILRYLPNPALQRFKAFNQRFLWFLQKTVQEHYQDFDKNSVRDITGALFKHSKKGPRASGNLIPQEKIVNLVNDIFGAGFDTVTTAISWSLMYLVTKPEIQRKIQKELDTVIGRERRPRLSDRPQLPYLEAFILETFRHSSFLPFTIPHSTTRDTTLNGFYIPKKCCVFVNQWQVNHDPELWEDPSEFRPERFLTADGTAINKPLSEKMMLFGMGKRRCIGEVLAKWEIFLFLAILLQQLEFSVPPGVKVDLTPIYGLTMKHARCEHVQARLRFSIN

CYP450 2C19 = CYP450 2C19 (Homo sapiens, UniProt P33261); assay: CYP450 panel, 2C19; conditions: 10 μM; substrate mephenytoin
Chain of CYP450 2C19 (P33261 whole entry): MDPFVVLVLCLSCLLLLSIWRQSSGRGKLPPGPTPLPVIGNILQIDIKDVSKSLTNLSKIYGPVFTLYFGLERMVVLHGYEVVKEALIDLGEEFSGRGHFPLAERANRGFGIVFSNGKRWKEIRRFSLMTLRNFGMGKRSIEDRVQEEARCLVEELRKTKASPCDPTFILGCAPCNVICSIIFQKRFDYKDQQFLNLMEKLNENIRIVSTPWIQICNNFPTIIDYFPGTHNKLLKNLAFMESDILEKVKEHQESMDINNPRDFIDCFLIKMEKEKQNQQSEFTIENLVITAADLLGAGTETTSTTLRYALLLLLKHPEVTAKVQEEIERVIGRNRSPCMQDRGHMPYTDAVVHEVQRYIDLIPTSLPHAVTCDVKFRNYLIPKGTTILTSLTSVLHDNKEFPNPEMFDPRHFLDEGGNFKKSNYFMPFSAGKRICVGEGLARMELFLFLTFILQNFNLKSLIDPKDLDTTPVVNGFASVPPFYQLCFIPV

[4] = Microsome stability, human; assay type: in vitro ADME; conditions: microsomes, 2 μM
hERG Channel = hERG Channel (Homo sapiens, UniProt Q12809); assay: cell-based
Chain of hERG Channel (Q12809 whole entry): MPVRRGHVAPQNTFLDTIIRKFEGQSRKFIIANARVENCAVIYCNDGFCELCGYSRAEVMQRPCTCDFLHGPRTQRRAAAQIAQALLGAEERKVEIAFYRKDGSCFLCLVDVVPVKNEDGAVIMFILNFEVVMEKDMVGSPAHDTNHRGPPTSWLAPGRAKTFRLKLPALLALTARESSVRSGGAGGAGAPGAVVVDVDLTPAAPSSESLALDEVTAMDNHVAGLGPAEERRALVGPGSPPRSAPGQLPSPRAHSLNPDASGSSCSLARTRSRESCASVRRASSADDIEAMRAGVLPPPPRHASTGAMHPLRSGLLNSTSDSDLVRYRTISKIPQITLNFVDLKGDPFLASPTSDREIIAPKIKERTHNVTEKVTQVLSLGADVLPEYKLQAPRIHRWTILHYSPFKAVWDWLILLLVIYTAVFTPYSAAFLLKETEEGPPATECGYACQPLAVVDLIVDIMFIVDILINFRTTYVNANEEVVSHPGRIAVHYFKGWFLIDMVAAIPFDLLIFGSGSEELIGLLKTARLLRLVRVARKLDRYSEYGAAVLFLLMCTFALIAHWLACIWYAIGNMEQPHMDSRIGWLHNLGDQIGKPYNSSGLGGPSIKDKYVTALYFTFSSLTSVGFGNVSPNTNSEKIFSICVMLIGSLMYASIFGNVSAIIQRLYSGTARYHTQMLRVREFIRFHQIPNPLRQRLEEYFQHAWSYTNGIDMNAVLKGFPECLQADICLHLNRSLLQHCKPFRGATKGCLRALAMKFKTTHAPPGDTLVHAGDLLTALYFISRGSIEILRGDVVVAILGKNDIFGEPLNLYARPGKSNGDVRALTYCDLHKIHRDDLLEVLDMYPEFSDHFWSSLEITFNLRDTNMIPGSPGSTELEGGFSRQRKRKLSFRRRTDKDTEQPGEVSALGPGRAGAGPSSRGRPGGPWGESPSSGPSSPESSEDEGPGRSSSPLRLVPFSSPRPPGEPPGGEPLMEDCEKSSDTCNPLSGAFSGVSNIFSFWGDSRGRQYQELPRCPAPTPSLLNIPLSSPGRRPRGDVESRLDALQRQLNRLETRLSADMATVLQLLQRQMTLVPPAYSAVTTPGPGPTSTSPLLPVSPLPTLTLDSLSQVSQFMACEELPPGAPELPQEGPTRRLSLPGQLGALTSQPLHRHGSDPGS

[5] = Absorption & efflux: Caco-2 permeability; conditions: human
[6] = Microsome stability, CD-1 mouse; conditions: microsomes, 2 μM
Plasma stability, human = assay type: in vitro ADME; conditions: 2 μM
[7] = Plasma stability, beagle dog; assay type: in vitro ADME; conditions: 2 μM
A549 pERK = assay: A549-pERK, 2 h (quantitative Western, Jess); assay type: cell-based; conditions: Homo sapiens, A549, 2 h, 10 nM, phospho:total ratio normalized to DMSO control
Protocol: (§1) A549 or […] cells were treated in duplicate for two hours with compounds at varying concentrations. After two hours, the cells were lysed, snap frozen, and stored at −80° C. After storage, the lysate was quantified with the Bradford assay. Before the lysates were prepared to run on the Jess, the lysates were diluted to 1 mg/mL for pERK analysis and 1.5 mg/mL pMEK analysis using quantitative Western blotting. ERK and MEK phosphorylation levels were estimated by taking the ratio of phospho-protein to total protein and normalizing to the DMSO control. The results of this study are described in Tables 14-16.

[8] = test system: A549 CRAF BP (MEK phosphorylation); assay: A549-CRAF BP 100 nM, 2 h (pMEK); assay type: cell-based; conditions: Homo sapiens, A549, 2 h, phospho:total ratio normalized to DMSO control
Protocol: as §1

[9] = Caco-2, A-B Permeability Ranking
[10] = Caco-2, Mean Papp A-B (10^−6 cm/s)

Chain of CYP450 2C9 (P11712 whole entry): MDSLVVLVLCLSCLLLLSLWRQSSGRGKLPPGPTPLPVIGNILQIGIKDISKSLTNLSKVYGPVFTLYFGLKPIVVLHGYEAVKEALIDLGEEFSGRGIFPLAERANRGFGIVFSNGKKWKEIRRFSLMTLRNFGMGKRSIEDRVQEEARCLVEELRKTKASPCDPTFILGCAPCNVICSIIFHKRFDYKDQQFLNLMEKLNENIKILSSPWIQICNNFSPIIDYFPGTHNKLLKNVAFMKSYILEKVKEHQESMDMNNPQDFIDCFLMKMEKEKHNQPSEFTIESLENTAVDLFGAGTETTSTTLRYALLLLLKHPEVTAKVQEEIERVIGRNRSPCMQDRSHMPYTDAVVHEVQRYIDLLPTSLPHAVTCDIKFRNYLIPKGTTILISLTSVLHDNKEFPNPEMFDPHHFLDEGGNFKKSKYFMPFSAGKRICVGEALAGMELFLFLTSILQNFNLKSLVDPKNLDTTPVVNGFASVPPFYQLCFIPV

SMILES | CD-1 Mouse (% Reamining @2 hour) [1] [%] | 2C9* (CYP450 2C9) | 2C8* (CYP450 2C8) | 3A4* (CYP450 3A4) | 3A4^ (CYP450 3A4) | 2D6* (CYP450 2D6) | Beagle Dog (% Reamining @1 hour) [3] [%] | 2B6* (CYP450 2B6) | 1A2* (CYP450 1A2) | 2C19* (CYP450 2C19) | Human (% Reamining @1 hour) [4] [%] | IC50 (hERG Channel) [µM] | Papp B→A at 2 h, 10 μM [5] [×10⁻⁶ cm/s] | efflux ratio at 2 h, 10 μM [5] | Papp A→B at 2 h, 10 μM [5, 9] [×10⁻⁶ cm/s] | Papp A→B at 2 h, 10 μM [5, 10] [×10⁻⁶ cm/s] | CD-1 Mouse (% Reamining @1 hour) [6] [%] | Human (% Reamining @2 hour) (Plasma stability, human) [%] | Beagle Dog (% Reamining @2 hour) [7] [%] | activity at 0.01 µM (A549 pERK) [%] | further results
CNS(=O)(=O)Nc1cccc(Cc2c(CNCC#N)c3ccc(OC(=O)N(C)C)cc3oc2=O)c1F [Compound 13] | 87.1 | −4.6 | 6.2 | 25.7 | 34.9 | −2.6 | 69.6 | 15.8 | 6.5 | 6.2 | 57.7 | > 30 | 20 | 5.57 | > 1 | 3.59 | 16.8 | 87.3 | 95.9 |  | concentration at 2 h ([2]; liver, read-out: Liver): 36.6 ng/g; concentration at 2 h ([2]; tumor, read-out: Tumor): 26 ng/g; Muscle [2]: BQL; Plasma [2]: BQL
CNS(=O)(=O)Nc1cccc(Cc2c(CNc3ccn[nH]3)c3ccc(OC(=O)N(C)C)cc3oc2=O)c1F [Compound 12] | 86.6 | 8.4 | 2.4 | 29.2 | 31.9 | 4.5 | 42.8 | 14.9 | 13.0 | 16.0 | 32.9 | > 30 | 17.9 | 16.9 | > 1 | 1.06 | 28.2 | 100.5 | 102.6 |  | 
CNS(=O)(=O)Nc1cccc(Cc2c(CN3CCN(C)CC3)c3ccc(OC(=O)N(C)C)cc3oc2=O)c1F [Compound 15] | 87.1 | 3.0 | −16.9 | 21.3 | 20.5 | 0.5 | 46.0 | 16.3 | 7.8 | 4.3 | 75.8 | 6.5 | 34.9 | 29.3 | > 1 | 1.19 | 77.6 | 98.1 | 89.1 | 73.8 | 
CNS(=O)(=O)Nc1cccc(Cc2c(CN3CCNCC3)c3ccc(OC(=O)N(C)C)cc3oc2=O)c1F [Compound 10] | 97.7 | 1.8 | −1.0 | 17.3 | 16.2 | −3.4 | 73.9 | 22.4 | 0.4 | 4.8 | 80.1 | > 30 | 3.8 | 56.3 | < 1 | 0.0676 | 91.3 | 92.1 | 96.2 | 27.7 | activity at 0.1 µM [8]: 42.2%
CNS(=O)(=O)Nc1cccc(Cc2c(CN3CCN(Cc4ccccc4)CC3)c3ccc(OC(=O)N(C)C)cc3oc2=O)c1F [Compound 16] | 92.7 | 42.4 | 45.5 | 75.1 | 92.1 | 55.0 | 0.4 | 11.6 | 6.9 | 88.4 | 1.4 | 0.1 | 5.61 | 0.743 | > 1 | 7.55 | 0.6 | 99.0 | 101.2 | 91.6 | 
Nc1ccc(S(=O)(=O)Nc2ccnn2-c2ccccc2)cc1 [Sulfaphenazole] |  | 101.2 |  |  |  |  |  |  |  |  |  |  |  |  |  |  |  |  |  |  | 
O=c1c(O)c(-c2ccc(O)c(O)c2)oc2cc(O)cc(O)c12 [Quercetin] |  |  | 93.1 |  |  |  |  |  |  |  |  |  |  |  |  |  |  |  |  |  | 
CNS(=O)(=O)Nc1cccc(Cc2c(CNC3CC3)c3ccc(OC(=O)N(C)C)cc3oc2=O)c1F [Compound 11] | 81.4 | 12.9 | 0.8 | 36.1 | 44.8 | 9.8 | 4.9 | 12.1 | 6.9 | 9.7 | 28.9 | 1.1 | 19.7 | 2.15 | > 1 | 9.18 | 7.0 | 93.7 | 97.8 |  | 
